According to patent publication US10538567B2, “Compounds as peptidic trigonal GLP1/glucagon/GIP receptor agonists” (priority 2016, dated 2020):
Numbered stars: 1 amine (or outer) side, 2 acyl side, 3 side chain; on linkers, the order of the positions; unused ones are H or OH. Square brackets hold non-standard residues; d marks the D form. Side chains are listed from the residue outwards. Peptide text beside a SMILES is read from it. * marks the point of attachment. Adipoyl(4R-palmitoylamino) = CCCCCCCCCCCCCCCC(=O)N[C@H](CCC(=O)*)CC(=O)O; γGlu = O=C(O)[C@H](CCC(=O)[*:2])N[*:1]; AEEA = NCCOCCOCC(=O)O; Aib = CC(C)(N)C(=O)O

Experiments:
human GIP receptor = target: T1, human GIP receptor (Homo sapiens, UniProt P48546); test: cAMP response (HTRF) of HEK-293 cells stably expressing human GIP receptor; type: cell-based; conditions: Table 8; read-out: EC50 hGIP R
T1 construct: expressed in transfected cells; host or cells: HEK-293
T1 sequence (P48546 22-466): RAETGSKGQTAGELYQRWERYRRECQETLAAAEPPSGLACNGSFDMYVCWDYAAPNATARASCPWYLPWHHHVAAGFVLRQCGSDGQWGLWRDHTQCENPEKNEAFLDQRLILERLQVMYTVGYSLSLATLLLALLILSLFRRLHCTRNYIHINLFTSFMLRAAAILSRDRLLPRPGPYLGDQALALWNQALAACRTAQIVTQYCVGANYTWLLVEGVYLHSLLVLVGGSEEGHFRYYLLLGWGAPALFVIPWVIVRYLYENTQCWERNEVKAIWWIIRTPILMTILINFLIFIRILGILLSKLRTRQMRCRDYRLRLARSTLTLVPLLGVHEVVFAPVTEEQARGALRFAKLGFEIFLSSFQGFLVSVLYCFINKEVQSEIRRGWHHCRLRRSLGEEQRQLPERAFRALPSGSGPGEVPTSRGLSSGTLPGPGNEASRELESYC
Description: Agonism of compounds for the receptors was determined by functional assays measuring cAMP response of HEK-293 cell lines stably expressing human GLP-1, GIP or glucagon receptor.
(§1) cAMP content of cells was determined using a kit from Cisbio Corp. (cat. no. 62AM4PEJ) based on HTRF (Homogenous Time Resolved Fluorescence). For preparation, cells were split into T175 culture flasks and grown overnight to near confluency in medium (DMEM/10% FBS). Medium was then removed and cells washed with PBS lacking calcium and magnesium, followed by proteinase treatment with accutase (Sigma-Aldrich cat. no. A6964). Detached cells were washed and resuspended in assay buffer (1×HBSS; 20 mM HEPES, 0.1% BSA, 2 mM IBMX) and cellular density determined. They were then diluted to 400000 cells/ml and 25 μl-aliquots dispensed into the wells of 96-well plates. For measurement, 25 μl of test compound in assay buffer was added to the wells, followed by incubation for 30 minutes at room temperature. After addition of HTRF reagents diluted in lysis buffer (kit components), the plates were incubated for 1 hr, followed by measurement of the fluorescence ratio at 665/616 nm. In vitro potency of agonists was quantified by determining the concentrations that caused 50% activation of maximal response (EC50).
(§2) Potencies of peptidic compounds at the GLP-1, glucagon and GIP receptors were determined by exposing cells expressing human glucagon receptor (hGlucagon R), human GIP receptor (hGIP-R) or human GLP-1 receptor (hGLP-1 R) to the listed compounds at increasing concentrations and measuring the formed cAMP as described in Methods.

[1] = Thioflavin T (ThT) assay for physical stability (fibrillation); type: physicochemical; conditions: 3 mg/ml, 100 mM acetate pH 4.5 with m-cresol, 37° C. shaking
Excerpt: Low physical stability of a peptide solution may lead to amyloid fibril formation, which is observed as well-ordered, thread-like macromolecular structures in the sample, which eventually may lead to gel formation. Thioflavin T (ThT) is widely used to visualize and quantify the presence of misfolded protein aggregates. [Biancalana et al. (2010) Biochimica et Biophysica Acta. 1804 (7): 1405-1412]. […] Enzymol. 309, 274-284]. The time course for fibril formation often follows the characteristic shape of a sigmoidal curve and can be separated into three regions: a lag phase, a fast growth phase, and a plateau phase.
The typical fibril formation process starts with the lag phase in which the amount of partially folded peptide turned into fibrils is not significant enough to be detected. The lag-time corresponds to the time the critical mass of the nucleus is built. Afterwards, a drastic elongation phase follows and fibril concentration increases rapidly.
Investigations were carried out to determine fibrillation tendencies under stress conditions by shaking at 37° C. within Fluoroskan Ascent FL.
For the tests in Fluoroskan Ascent FL, 200 μL sample were placed into a 96 well mictrotiter plate PS, flat bottom, Greiner Fluotrac No. 655076. Plates were sealed with Scotch Tape (Quiagen). Samples were stressed by continuous cycles of 10 s shaking at 960 rpm and 50 s rest period at 37° C. The kinetic was monitored by measuring fluorescence intensity every 20 minutes.
Peptides were diluted in a buffer system to a final concentration of 3 mg/ml. 20 μL of a 10.1 mM ThT solution in H2O were added to 2 mL of peptide solution to receive a final concentration of 100 μM ThT. For each sample eight replicates were tested.
Tht buffer system A) 100 mM Acetate pH 4.5 including m-cresol (100 mM Natriumacetat trihydrat, pH adjustment using 2N CH3COOH, 2.7 mg/mL m-cresol) Tht buffer system B) 100 mM citrate buffer pH 6.0
Lag time in hours in Thioflavin T (ThT) assay of peptide samples was determined in ThT buffer system A as described in Methods.

[2] = Chemical stability assessment, UPLC-UV purity loss in buffer system A; type: physicochemical; conditions: 1 mg/ml, 25 mM acetate buffer pH 4.5 with m-cresol
Description: Prior to the chemical stability measurement of a peptide batch, its purity was determined through UPLC/MS. For stability testing the target concentration was 1 mg pure compound/ml. Therefore solutions from solid samples were prepared in a buffer system with a concentration of 1 mg/mL compound based on the previously determined % purity:
Chemical stability buffer system A) 25 mM acetate buffer pH 4.5, 3 mg/mL L-Methionine, 2.7 mg/mL m-cresol, 18 mg/mL Glycerol 85% Chemical stability buffer system B) 25 mM phosphate buffer pH 6.0, 3 mg/mL L-Methionine, 2.7 mg/mL m-cresol, 18 mg/mL Glycerol 85%
Peptide solutions were filtered through […] pore size and filled into aliquots under aseptic conditions. At starting point, UPLC-UV was performed by injection of 2 μl of the undiluted sample.
For chemical stability testing, aliquots were stored for 28 days at 5 and 40° C. After this time course the samples were centrifuged for 15 min at 2500 RCF. Then 2 μl of the undiluted supernatant were analysed with UPLC-UV.
The chemical stability was rated through the relative loss of purity calculated by the equation: [(purity at starting point)−(purity after 28 days at X° C.)]/(purity at starting point)]*100%
The purity is calculated as
[(peak area peptide)/(total peak area)]*100%
Peptide samples were prepared in Chemical stability buffer system A and the stability was assessed as described in Methods.

human GLP-1 receptor = target: T2, human GLP-1 receptor (Homo sapiens, UniProt P43220); test: cAMP response (HTRF) of HEK-293 cells stably expressing human GLP-1 receptor; type: cell-based; conditions: Table 8; read-out: EC50 hGLP-1R
T2 construct: expressed in transfected cells; host or cells: HEK-293
Description: as §1, with “temperature.” for “temperature. After addition of HTRF reagents diluted in lysis buffer (kit components), the plates were incubated for 1 hr, followed by measurement of the fluorescence ratio at 665/616 nm. In vitro potency of agonists was quantified by determining the concentrations that caused 50% activation of maximal response (EC50).”
as §2

T2 sequence (P43220 24-463): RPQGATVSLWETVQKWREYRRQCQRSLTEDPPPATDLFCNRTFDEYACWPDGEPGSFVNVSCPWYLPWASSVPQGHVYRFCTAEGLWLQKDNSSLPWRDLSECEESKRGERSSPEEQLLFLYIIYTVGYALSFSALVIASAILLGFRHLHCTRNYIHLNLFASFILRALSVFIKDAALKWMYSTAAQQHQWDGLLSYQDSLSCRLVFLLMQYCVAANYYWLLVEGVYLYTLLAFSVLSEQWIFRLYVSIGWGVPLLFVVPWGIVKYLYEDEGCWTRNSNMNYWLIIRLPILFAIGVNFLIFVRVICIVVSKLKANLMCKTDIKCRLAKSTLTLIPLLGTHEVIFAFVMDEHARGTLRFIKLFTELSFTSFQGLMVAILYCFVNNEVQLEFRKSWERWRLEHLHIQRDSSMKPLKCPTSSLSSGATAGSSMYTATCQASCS

EC50 (human GIP receptor) [pM]	Lag time before increase [1] [h]	Chemical stability [relative purity loss 28 days 40° C.] (%) at pH 4.5 [2] [%]	EC50 (human GLP-1 receptor) [pM]	SMILES
1.9	>45	–	–	CCCCCCCCCCCCCCCC(=O)N[C@@H](CCC(=O)NCCCC[C@H](NC(=O)[C@H](CC(C)C)NC(=O)[C@H](CCCCN)NC(=O)[C@H](CO)NC(=O)[C@H](CC(C)C)NC(=O)[C@H](CC(=O)O)NC(=O)[C@H](CO)NC(=O)[C@@H](NC(=O)[C@H](Cc1ccccc1)NC(=O)[C@@H](NC(=O)CNC(=O)[C@H](Cc1c[nH]cn1)NC(=O)C(C)(C)NC(=O)[C@@H](N)Cc1c[nH]cn1)[C@@H](C)O)[C@@H](C)O)C(=O)N[C@@H](CCC(=O)O)C(=O)N[C@@H](CCC(=O)O)C(=O)N[C@@H](CCC(N)=O)C(=O)N[C@@H](CCCNC(=N)N)C(=O)N[C@@H](CCC(N)=O)C(=O)N[C@@H](CCCCN)C(=O)N[C@@H](CCC(=O)O)C(=O)N[C@@H](Cc1ccccc1)C(=O)N[C@H](C(=O)N[C@@H](CCC(=O)O)C(=O)N[C@@H](Cc1c[nH]c2ccccc12)C(=O)N[C@@H](CC(C)C)C(=O)N[C@@H](CCCCN)C(=O)N[C@@H](C)C(=O)NCC(=O)NCC(=O)N1CCC[C@H]1C(=O)N1CCC[C@H]1C(=O)N[C@@H](CO)C(=O)NC(C)(C)C(=O)N[C@@H](CCCCN)C(=O)N1CCC[C@H]1C(=O)N1CCC[C@H]1C(=O)N1CCC[C@H]1C(=O)N[C@@H](CCCCN)C(N)=O)[C@@H](C)CC)C(=O)O [SEQ ID NO: 20, H-Aib-H-G-T-F-T-S-D-L-S-K-L-K[gGlu-Palm]-E-E-Q-R-Q-K-E-F-I-E-W-L-K-A-G-G-P-P-S-Aib-K-P-P-P-K-NH2]
1.1	>45	9.5	–	CCCCCCCCCCCCCCCC(=O)N[C@H](CCC(=O)NCCOCCOCC(=O)N[C@@H](CCC(=O)NCCCC[C@H](NC(=O)[C@H](CC(C)C)NC(=O)[C@H](CCCCN)NC(=O)[C@H](CO)NC(=O)[C@H](CC(C)C)NC(=O)[C@H](CC(=O)O)NC(=O)[C@H](CO)NC(=O)[C@@H](NC(=O)[C@H](Cc1ccccc1)NC(=O)[C@@H](NC(=O)CNC(=O)[C@H](Cc1c[nH]cn1)NC(=O)C(C)(C)NC(=O)[C@@H](N)Cc1c[nH]cn1)[C@@H](C)O)[C@@H](C)O)C(=O)N[C@@H](CCC(=O)O)C(=O)N[C@@H](CCC(=O)O)C(=O)N[C@@H](CCC(N)=O)C(=O)N[C@@H](CCCNC(=N)N)C(=O)N[C@@H](CCC(N)=O)C(=O)N[C@@H](CCCCN)C(=O)N[C@@H](CCC(=O)O)C(=O)N[C@@H](Cc1ccccc1)C(=O)N[C@H](C(=O)N[C@@H](CCC(=O)O)C(=O)N[C@@H](Cc1c[nH]c2ccccc12)C(=O)N[C@@H](CC(C)C)C(=O)N[C@@H](CCCCN)C(=O)N[C@@H](C)C(=O)NCC(=O)NCC(=O)N[C@@H](Cc1c[nH]cn1)C(=O)N1CCC[C@H]1C(=O)N[C@@H](CO)C(=O)NC(C)(C)C(=O)N[C@@H](CCCCN)C(=O)N1CCC[C@H]1C(=O)N1CCC[C@H]1C(=O)N1CCC[C@H]1C(=O)N[C@@H](CCCCN)C(N)=O)[C@@H](C)CC)C(=O)O)CC(=O)O [SEQ ID NO: 22, H-Aib-H-G-T-F-T-S-D-L-S-K-L-K[gGlu-AEEA-gAAA-Palm]-E-E-Q-R-Q-K-E-F-I-E-W-L-K-A-G-G-H-P-S-Aib-K-P-P-P-K-NH2] (H-H[Aib]HGTFTSDLSKLK([γGlu-AEEA-Adipoyl(4R-palmitoylamino)])EEQRQKEFIEWLKAGGHPS[Aib]KPPPK-NH2)
1.5	>45	8.6	1.4	CCCCCCCCCCCCCCCC(=O)N[C@H](CCC(=O)NCCOCCOCC(=O)N[C@@H](CCC(=O)NCCCC[C@H](NC(=O)[C@H](CC(C)C)NC(=O)[C@H](CCCCN)NC(=O)[C@H](CO)NC(=O)[C@H](CC(C)C)NC(=O)[C@H](CC(=O)O)NC(=O)[C@H](CO)NC(=O)[C@@H](NC(=O)[C@H](Cc1ccccc1)NC(=O)[C@@H](NC(=O)CNC(=O)[C@H](Cc1c[nH]cn1)NC(=O)C(C)(C)NC(=O)[C@@H](N)Cc1c[nH]cn1)[C@@H](C)O)[C@@H](C)O)C(=O)N[C@@H](CCC(=O)O)C(=O)N[C@@H](CCC(=O)O)C(=O)N[C@@H](CCC(N)=O)C(=O)N[C@@H](CCCNC(=N)N)C(=O)N[C@@H](CCC(N)=O)C(=O)N[C@@H](CCCCN)C(=O)N[C@@H](CCC(=O)O)C(=O)N[C@@H](Cc1ccccc1)C(=O)N[C@H](C(=O)N[C@@H](CCC(=O)O)C(=O)N[C@@H](Cc1c[nH]c2ccccc12)C(=O)N[C@@H](CC(C)C)C(=O)N[C@@H](CCCCN)C(=O)N[C@@H](C)C(=O)N[C@H](C)C(=O)NCC(=O)N[C@@H](Cc1c[nH]cn1)C(=O)N1CCC[C@H]1C(=O)N[C@@H](CO)C(=O)NC(C)(C)C(=O)N[C@@H](CCCCN)C(=O)N1CCC[C@H]1C(=O)N1CCC[C@H]1C(=O)N1CCC[C@H]1C(=O)N[C@@H](CCCCN)C(N)=O)[C@@H](C)CC)C(=O)O)CC(=O)O [SEQ ID NO: 23, H-Aib-H-G-T-F-T-S-D-L-S-K-L-K[gGlu-AEEA-gAAA-Palm]-E-E-Q-R-Q-K-E-F-I-E-W-L-K-A-dAla-G-H-P-S-Aib-K-P-P-P-K-NH2] (H-H[Aib]HGTFTSDLSKLK([γGlu-AEEA-Adipoyl(4R-palmitoylamino)])EEQRQKEFIEWLKA[dA]GHPS[Aib]KPPPK-NH2)
